Columns and labels:
[1] = Stability of (1R,1′R)-atracurium besylate at different pH values in Na+CH3COO−/CH3COOH buffer; format: physicochemical; settings: T0 to 21.0 hours
[2] = more potent than atracurium besylate itself; cited from earlier work
[3] = Stability of (1R,1′R)-atracurium besylate solution in different buffers at room temperature (HPLC, USP procedure); format: physicochemical; settings: for % of cisatracurium besylate after 24 hours / % of cisatracurium besylate at T = 0: 90% buffer/10% methanol
Procedure: (§1) The stability of the (1R,1′R)-atracurium besylate solution at room temperature for time periods of up to 24 hours was checked using different types of buffers (varying by the nature of the cation and the anion). The diluent was a mixture of 90% buffer and 10% methanol. The Cation concentration in each buffer was 20 mM. The HPLC conditions were according to the USP procedure. The results are depicted in Tables 11 and 12. The degradation (D), according to the data presented in Table 11, was calculated as follows: [formula] wherein, X0=% of cisatracurium at T0, and X24=% of cisatracurium at after 24 hours.

[4] = Stability of (1R,1′R)-atracurium besylate sample solution at pH 1.0 and 2.0 (nitrate buffer) at room temperature and 4° C.; format: physicochemical
Procedure: A sample solution of (1R,1′R)-atracurium besylate (10 mg/ml) was prepared using two buffer solutions at pH values of 1.0 and 2.0 and analyzed on the C18 stationary phase by gradient elution [20 mM KNO3 buffer (at pH corresponding to sample preparation)—methanol]. […] [formula] wherein, X0=% of cisatracurium at T0, and X6/26=% of cisatracurium at after 6 or 26 hours.

[5] = Stability of (1R,1′R)-atracurium besylate at different pH values in Na+CH3COO−/CH3COOH buffer; format: physicochemical; settings: for % degradation: T0 to 21.0 hours
Procedure: as §1, with “12. […]” for “12.”, “(D)” for “(D),”, “12” for “11,”, “X21=%” for “X24=%”

[6] = CaBr2/HBr buffer pH 3.5, 20 mM cation
[7] = K+H2PO4 buffer pH 3.0, 20 mM cation
[8] = NH4+CH3COO−/CH3COOH buffer pH 3.5, 20 mM cation
[9] = NH4+CH3COO−/HCOOH buffer pH 3.5, 20 mM cation
[10] = Na+CH3COO−/CH3COOH buffer pH 3.5, 20 mM cation
[11] = Na+NO3−/HNO3 buffer pH 3.0, 20 mM cation
[12] = diethylamine/CH3COOH buffer pH 3.5, 20 mM cation
[13] = triethylamine/CH3COOH buffer pH 3.5, 20 mM cation
[14] = pH = 1, room temperature, 6 hours
[15] = pH = 1, room temperature, 26 hours
[16] = pH = 2, room temperature, 6 hours

## COc1ccc(C[C@@H]2c3cc(OC)c(OC)cc3CC[N@+]2(C)CCC(=O)OCCCCCOC(=O)CC[N@@+]2(C)CCc3cc(OC)c(OC)cc3[C@H]2Cc2ccc(OC)c(OC)c2)cc1OC [cisatracurium besylate, 1R-cis-1′R-cis-2,2′2,2′-[1,5-pentanediylbis[oxy(3-oxo-3,1-propanediyl)]]bis[1-[(3,4-dimethoxyphenyl)methyl]-1,2,3,4-tetrahydro-6,7-dimethoxy-2-methyl-isoquinolinium dibenzenesulfonate]
[1]; pH 3.0, Na+CH3COO−/CH3COOH buffer
  % degradation: 6.4%
[1]; pH 4.0, Na+CH3COO−/CH3COOH buffer
  % degradation: 10.3%
[1]; pH 5.0, Na+CH3COO−/CH3COOH buffer
  % degradation: 28.4%
[1]; pH 5.5, Na+CH3COO−/CH3COOH buffer
  % degradation: 48.1%
[2]
  potency relative to atracurium besylate: 3-4 times
[3]; [6]
  % of cisatracurium besylate after 24 hours: 54.4%
  % of cisatracurium besylate at T = 0: 54.4%
[3]; CaBr2/HBr buffer pH 3.5, 24 hours
  % degradation: 0%
[3]; [7]
  % of cisatracurium besylate after 24 hours: 53.7%
  % of cisatracurium besylate at T = 0: 54.7%
[3]; K+H2PO4 buffer pH 3.0, 24 hours
  % degradation: 1.8%
[3]; [8]
  % of cisatracurium besylate after 24 hours: 52.9%
  % of cisatracurium besylate at T = 0: 54.7%
[3]; NH4+CH3COO−/CH3COOH buffer pH 3.5, 24 hours
  % degradation: 3.3%
[3]; [9]
  % of cisatracurium besylate after 24 hours: 54.3%
  % of cisatracurium besylate at T = 0: 54.6%
[3]; NH4+CH3COO−/HCOOH buffer pH 3.5, 24 hours
  % degradation: 0.5%
[3]; [10]
  % of cisatracurium besylate after 24 hours: 52.5%
  % of cisatracurium besylate at T = 0: 54.5%
[3]; Na+CH3COO−/CH3COOH buffer pH 3.5, 24 hours
  % degradation: 3.7%
[3]; [11]
  % of cisatracurium besylate after 24 hours: 54.5%
  % of cisatracurium besylate at T = 0: 54.5%
[3]; Na+NO3−/HNO3 buffer pH 3.0, 24 hours
  % degradation: 0%
[3]; [12]
  % of cisatracurium besylate after 24 hours: 53.2%
  % of cisatracurium besylate at T = 0: 54.7%
[3]; diethylamine/CH3COOH buffer pH 3.5, 24 hours
  % degradation: 2.7%
[3]; [13]
  % of cisatracurium besylate after 24 hours: 52.1%
  % of cisatracurium besylate at T = 0: 54.4%
[3]; triethylamine/CH3COOH buffer pH 3.5, 24 hours
  % degradation: 4.2%
[4]; pH = 1, 4° C., 0 hours
  % area of the cis-cis isomer: 54.9%
[4]; pH = 1, 4° C., 6 hours
  % area of the cis-cis isomer: 53.9%
  D, % (degradation): 1.8%
[4]; pH = 1, 4° C., 26 hours
  % area of the cis-cis isomer: 52.8%
  D, % (degradation): 3.8%
[4]; pH = 1, room temperature, 0 hours
  % area of the cis-cis isomer: 54.9%
[4]; [14]
  % area of the cis-cis isomer: 50.2%
  D, % (degradation): 8.6%
[4]; [15]
  % area of the cis-cis isomer: 38.8%
  D, % (degradation): 29.3%
[4]; pH = 2, 4° C., 0 hours
  % area of the cis-cis isomer: 54.8%
[4]; pH = 2, 4° C., 6 hours
  % area of the cis-cis isomer: 54.8%
  D, % (degradation): 0%
[4]; pH = 2, 4° C., 26 hours
  % area of the cis-cis isomer: 54.7%
[4]; pH = 2, 4° C., 26 hours, nitrate buffer
  D, % (degradation): 0.2%
[4]; pH = 2, room temperature, 0 hours
  % area of the cis-cis isomer: 54.8%
[4]; [16]
  % area of the cis-cis isomer: 54.5%
  D, % (degradation): 0.5%
[4]; pH = 2, room temperature, 26 hours
  % area of the cis-cis isomer: 53.8%
[4]; pH = 2, room temperature, 26 hours, nitrate buffer
  D, % (degradation): less than 2%
[4]; pH = 2, room temperature, 26 hours, nitrate buffer, listed as cis-cis isomer
  D, % (degradation): 1.8%
[4]; separation conditions of the invention (mildly acidic or buffered aqueous mobile phase)
  stability under the separation conditions: substantially stable
[5]; pH 3.0, Na+CH3COO−/CH3COOH buffer, 0.0 hours
  % of cisatracurium besylate: 53.4%
[5]; pH 3.0, Na+CH3COO−/CH3COOH buffer, 10.0 hours
  % of cisatracurium besylate: 51.3%
[5]; pH 3.0, Na+CH3COO−/CH3COOH buffer, 21.0 hours
  % of cisatracurium besylate: 50.0%
[5]; pH 3, after 20 hours
  change of % area of the 1R-cis,1′R-cis isomer (FIG. 7): only slightly reduced
[5]; pH 3.5, Na+CH3COO−/CH3COOH buffer, 0.0 hours
  % of cisatracurium besylate: 53.6%
[5]; pH 3.5, Na+CH3COO−/CH3COOH buffer, 10.0 hours
  % of cisatracurium besylate: 51.0%
[5]; pH 3.5, Na+CH3COO−/CH3COOH buffer, 21.0 hours
  % of cisatracurium besylate: 49.2%
[5]; pH 3.5, Na+CH3COO−/CH3COOH buffer
  % degradation: 8.2%
[5]; pH 4.0, Na+CH3COO−/CH3COOH buffer, 0.0 hours
  % of cisatracurium besylate: 53.4%
[5]; pH 4.0, Na+CH3COO−/CH3COOH buffer, 10.0 hours
  % of cisatracurium besylate: 50.5%
[5]; pH 4.0, Na+CH3COO−/CH3COOH buffer, 21.0 hours
  % of cisatracurium besylate: 47.9%
[5]; pH 4.5, Na+CH3COO−/CH3COOH buffer, 0.0 hours
  % of cisatracurium besylate: 53.9%
[5]; pH 4.5, Na+CH3COO−/CH3COOH buffer, 10.0 hours
  % of cisatracurium besylate: 49.9%
[5]; pH 4.5, Na+CH3COO−/CH3COOH buffer, 21.0 hours
  % of cisatracurium besylate: 46.2%
[5]; pH 4.5, Na+CH3COO−/CH3COOH buffer
  % degradation: 14.3%
[5]; pH 5.0, Na+CH3COO−/CH3COOH buffer, 0.0 hours
  % of cisatracurium besylate: 53.6%
[5]; pH 5.0, Na+CH3COO−/CH3COOH buffer, 10.0 hours
  % of cisatracurium besylate: 46.1%
[5]; pH 5.0, Na+CH3COO−/CH3COOH buffer, 21.0 hours
  % of cisatracurium besylate: 38.4%
[5]; pH 5.5, Na+CH3COO−/CH3COOH buffer, 0.0 hours
  % of cisatracurium besylate: 53.6%
[5]; pH 5.5, Na+CH3COO−/CH3COOH buffer, 10.0 hours
  % of cisatracurium besylate: 40.8%
[5]; pH 5.5, Na+CH3COO−/CH3COOH buffer, 21.0 hours
  % of cisatracurium besylate: 27.8%
[5]; pH 5.5, after 20 hours
  change of % area of the 1R-cis,1′R-cis isomer (FIG. 7): significantly reduced

Source: patent US20100087650A1, “(1R,1'R)-ATRACURIUM SALTS SEPARATION PROCESS” (CHEMAGIS LTD., priority 2007, published 2010)
